What was measured:
[1] = biological target: EGFR L858R/T790M/C797S (BaF3-LTC cells) (Homo sapiens (Human), UniProt P00533, C797S/L858R/T790M); experiment: EGFR degradation HTRF assay in BaF3-LTC cells; type: cell-based; conditions: 16 h treatment; for DC50: Table 2, read-out: BaF3-LTC DC50; for Dmax: maximum percentage of degradation, Table 2, read-out: BaF3-LTC Dmax
Description: (§1) BaF3-LTC(L858R/T790M/C797S) and BaF3-DTC(Del19/T790M/C797S) cells are treated with compounds diluted in 0.2% DMSO cell culture medium and incubate for 16 h, 37° C., 5% CO2, H1975- #28 cells are treated with compounds diluted in 0.2% DMSO cell culture medium on day 2, incubate for 16 h, 37° C., 5% CO2. the final concentration of compounds in all assay is start with 10 uM, 5-fold dilution, total 8 doses were included.
(§2) After 16 h treatment, add HTRF lysis buffer to each well; seal the plate and incubate 1 hour at room temperature on a plate shaker; Once the cells are lysed, 16 μL of cell lysate are transferred to a PE 384-well HTRF detection plate; 4 μL of pre-mixed HTRF antibodies are added to each well; Cover the plate with a plate sealer, spin 1000 rpm for 1 min, Incubate overnight at room temperature; Read on BMG PheraStar with HTRF protocol (337 nm-665 nm-620 nm).
(§3) The IC50 (DC50) value of a compound can be obtained by fitting the following equation
(§4) Y=Bottom+(TOP−Bottom)/(1+((IC50/X)^hillslope))
(§5) Wherein, X and Y are known values, and IC50, Hillslope, Top and Bottom are the parameters obtained by fitting with software. Y is the inhibition percentage (calculated from the equation), X is the concentration of the compound; IC50 is the concentration of the compound when the 50% inhibition is reached. The smaller the IC50 value is, the stronger the inhibitory ability of the compound is. Vice versa, the higher the IC50 value is, the weaker the ability the inhibitory ability of the compound is; Hillslope represents the slope of the fitted curve, generally around 1*; Bottom represents the minimum value of the curve obtained by data fitting, which is generally 0%±20%; Top represents the maximum value of the curve obtained by data fitting, which is generally 100%±20%. The experimental data were fitted by calculating and analyzing with Dotmatics data analysis software.

[2] = system: EGFR Del19/T790M/C797S (H1975-clone #28 cells); experiment: EGFR degradation HTRF assay in H1975-clone #28 cells; type: cell-based; conditions: H1975-clone #28(Del19/T790M/C797S) cells, 16 h treatment, Table 2; for DC50: read-out: H1975 # 28 DTC DC50; for H1975 # 28 DTC Dmax: maximum percentage of degradation
Description: H1975-clone #28(Del19/T790M/C797S) was stably expressed in H1975 cell lines (from ATCC) by lentivirus-mediated over-expression. The EGFR over-expressed cells then underwent gene knockout, in which the EGFR targeting sgRNA was designed to only target the endogenous EGFR copies and preserve the exogenous EGFR copies. Followed by the gene knockout, the edited H1975 cells were seeded in 96 well plates at the concentration of […], cultured for about 2 weeks to allow single clones formation. The formed clones were screened by DNA sequencing and whole exon sequencing analysis for the desired edition. H1975-clone #28 was finally confirmed as homozygous Del19/T790M/C797S EGFR clone
as §1, §2, §3, §4, §5

Sequence of EGFR L858R/T790M/C797S (BaF3-LTC cells) (P00533 25-1210 T790M/C797S/L858R): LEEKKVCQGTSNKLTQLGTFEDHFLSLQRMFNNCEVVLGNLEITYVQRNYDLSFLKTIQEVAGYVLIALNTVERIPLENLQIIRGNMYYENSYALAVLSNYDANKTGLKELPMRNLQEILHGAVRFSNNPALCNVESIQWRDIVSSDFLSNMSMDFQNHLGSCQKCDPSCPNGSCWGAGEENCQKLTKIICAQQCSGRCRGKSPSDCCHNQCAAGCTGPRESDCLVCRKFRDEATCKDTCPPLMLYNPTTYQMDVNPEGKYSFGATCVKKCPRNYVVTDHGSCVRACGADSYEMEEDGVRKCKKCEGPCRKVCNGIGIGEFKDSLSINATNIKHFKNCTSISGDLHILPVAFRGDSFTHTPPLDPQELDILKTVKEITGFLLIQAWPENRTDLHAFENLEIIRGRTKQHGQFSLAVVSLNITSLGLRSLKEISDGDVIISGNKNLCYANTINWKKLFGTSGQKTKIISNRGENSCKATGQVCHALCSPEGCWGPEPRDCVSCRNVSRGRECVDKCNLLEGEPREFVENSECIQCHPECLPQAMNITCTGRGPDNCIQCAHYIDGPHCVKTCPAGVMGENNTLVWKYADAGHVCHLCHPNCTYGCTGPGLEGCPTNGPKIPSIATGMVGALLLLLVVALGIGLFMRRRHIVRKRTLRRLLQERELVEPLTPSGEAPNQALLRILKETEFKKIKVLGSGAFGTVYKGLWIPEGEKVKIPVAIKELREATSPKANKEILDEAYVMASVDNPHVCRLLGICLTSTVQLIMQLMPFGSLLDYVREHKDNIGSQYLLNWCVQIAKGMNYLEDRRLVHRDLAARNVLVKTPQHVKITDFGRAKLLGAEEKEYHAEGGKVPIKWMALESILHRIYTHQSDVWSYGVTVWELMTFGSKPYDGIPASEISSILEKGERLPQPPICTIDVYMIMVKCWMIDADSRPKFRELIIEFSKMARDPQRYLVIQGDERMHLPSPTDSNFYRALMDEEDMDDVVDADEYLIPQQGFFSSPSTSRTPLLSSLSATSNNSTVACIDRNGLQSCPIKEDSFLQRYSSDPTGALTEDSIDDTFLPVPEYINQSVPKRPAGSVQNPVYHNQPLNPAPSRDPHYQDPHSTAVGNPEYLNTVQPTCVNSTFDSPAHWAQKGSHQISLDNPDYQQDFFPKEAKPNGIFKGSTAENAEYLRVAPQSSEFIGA

SMILES | DC50 [1] [nM] | Dmax [1] [%] | DC50 [2] [nM] | H1975 # 28 DTC Dmax [2] [%]
CCc1ccc2c(P(C)(C)=O)c(Nc3nc(Nc4cc(CC)c(N5CCC(N6CCN(CCc7cc(F)c([C@@H]8CCC(=O)NC8=O)c(F)c7)CC6)CC5)cc4OC)ncc3Br)ccc2n1 [Example 20, (S)-3-(4-(2-(4-(1-(4-((5-bromo-4-((5-(dimethylphosphoryl)-2-ethylquinolin-6-yl)amino)pyrimidin-2-yl)amino)-2-ethyl-5-methoxyphenyl)piperidin-4-yl)piperazin-1-yl)ethyl)-2,6-difluorophenyl)piperidine-2,6-dione] | 90 | 69 | > 10000 | 19.09
CCc1ccc2c(P(C)(C)=O)c(Nc3nc(Nc4cc(CC)c(N5CCC(N6CCN(CCc7cc(F)c([C@H]8CCC(=O)NC8=O)c(F)c7)CC6)CC5)cc4OC)ncc3Br)ccc2n1 [Example 21, (R)-3-(4-(2-(4-(1-(4-((5-bromo-4-((5-(dimethylphosphoryl)-2-ethylquinolin-6-yl)amino)pyrimidin-2-yl)amino)-2-ethyl-5-methoxyphenyl)piperidin-4-yl)piperazin-1-yl)ethyl)-2,6-difluorophenyl)piperidine-2,6-dione] | 6.77 |  | 0.78 | 89.6
CCc1cc(Nc2ncc(Br)c(Nc3ccc4nc(C)ccc4c3P(C)(C)=O)n2)c(OC)cc1N1CCC(N2CCN(C(=O)[C@@H]3CCN(c4cc(F)c([C@H]5CCC(=O)NC5=O)c(F)c4)C3)CC2)CC1 [Example 22, (R)-3-(4-((R)-3-(4-(1-(4-((5-bromo-4-((5-(dimethylphosphoryl)-2-methylquinolin-6-yl)amino)pyrimidin-2-yl)amino)-2-ethyl-5-methoxyphenyl)piperidin-4-yl)piperazine-1-carbonyl)pyrrolidin-1-yl)-2,6-difluorophenyl)piperidine-2,6-dione] | 5.23 |  | 1.17 | 84.8
CCc1ccc2c(P(C)(C)=O)c(Nc3nc(Nc4cc(CC)c(N5CCC(N6CCN(C(=O)[C@@H]7CCN(c8cc(F)c([C@H]9CCC(=O)NC9=O)c(F)c8)C7)CC6)CC5)cc4OC)ncc3Br)ccc2n1 [Example 24, (R)-3-(4-((R)-3-(4-(1-(4-((5-bromo-4-((5-(dimethylphosphoryl)-2-ethylquinolin-6-yl)amino)pyrimidin-2-yl)amino)-2-ethyl-5-methoxyphenyl)piperidin-4-yl)piperazine-1-carbonyl)pyrrolidin-1-yl)-2,6-difluorophenyl)piperidine-2,6-dione] | 8.99 |  | 1.37 | 82.72
CCc1ccc2c(P(C)(C)=O)c(Nc3nc(Nc4cc(CC)c(N5CCC(N6CCN(C(=O)[C@@H]7CCN(c8cc(F)c([C@@H]9CCC(=O)NC9=O)c(F)c8)C7)CC6)CC5)cc4OC)ncc3Br)ccc2n1 [Example 25, (S)-3-(4-((R)-3-(4-(1-(4-((5-bromo-4-((5-(dimethylphosphoryl)-2-ethylquinolin-6-yl)amino)pyrimidin-2-yl)amino)-2-ethyl-5-methoxyphenyl)piperidin-4-yl)piperazine-1-carbonyl)pyrrolidin-1-yl)-2,6-difluorophenyl)piperidine-2,6-dione] | 360 | 57.2 | > 10000 | −8.4
CCc1cc(Nc2ncc(Br)c(Nc3ccc4nc(C)ccc4c3P(C)(C)=O)n2)c(OC2CC2)cc1N1CCC(N2CCN(CCc3cc(F)c([C@H]4CCC(=O)NC4=O)c(F)c3)CC2)CC1 [Example 26, (R)-3-(4-(2-(4-(1-(4-((5-bromo-4-((5-(dimethylphosphoryl)-2-methylquinolin-6-yl)amino)pyrimidin-2-yl)amino)-5-cyclopropoxy-2-ethylphenyl)piperidin-4-yl)piperazin-1-yl)ethyl)-2,6-difluorophenyl)piperidine-2,6-dione] |  |  | 0.851 | 86.08

From patent publication US20240207267A1, “(R)-Glutarimide CRBN Ligands and Methods of Use” (BeiGene Switzerland GmbH, priority 2021, published 2024)
